The values below come from US8921267B2, “Safening 6-(trisubstituted phenyl)-4-amino-2-pyridinecarboxylate herbicide injury on cereal crops” (Dow AgroSciences LLC, priority 2008, dated 2014).

What all share (format): in vivo
The subject of data set [1] is bird's-eye speedwell (Veronica persica L; VERPE). Description: Postemergence herbicidal activity, greenhouse, visual injury: bird's-eye speedwell. Also on record: key: visual injury, 0–100%: 0 = no injury, 100 = complete kill. How it is done:
(§1) Evaluation of Postemergence Herbicidal Safening in Cereal Crops
(§2) Seeds of the desired test plant species were planted in Sun Gro MetroMix® 306 planting mixture, which typically has a pH of 6.0 to 6.8 and an organic matter content of about 30 percent, in plastic pots with a surface area of 103.2 square centimeters (cm^2). When required to ensure good germination and healthy plants, a fungicide treatment and/or other chemical or physical treatment was applied. The plants were grown for 7-36 days (d) in a greenhouse with an approximate 14-hour (h) photoperiod which was maintained at about 18° C. during the day and 17° C. during the night. Nutrients and water were added on a regular basis and supplemental lighting was provided with overhead metal halide 1000-Watt lamps as necessary. The plants were employed for testing when they reached the second or third true leaf stage.
(§3) Weighed amounts of esters (methyl) or salts (TEA [triethylammonium], K [potassium]) of 4-amino-3-chloro-6-(4-chloro-2-fluoro-3-methoxyphenyl)pyridine-2-carboxylic acid (Compound 1) were dissolved in a volume of 97:3 volume/volume (v/v) acetone/dimethylsulfoxide (DMSO) to obtain stock solutions. […] The concentrated stock solutions were diluted with an aqueous mixture of 1.5% v/v of Agri-dex crop oil concentrate to provide the appropriate application rates. Compound requirements are based upon a 12 mL application volume at a rate of 187 liters per hectare (L/ha). Stocks solutions of the safeners were prepared following the same procedure. Spray solutions of the safeners and experimental compound mixtures were prepared by adding the stock solutions to the appropriate amount of dilution solution to form a 12 mL spray solution with active ingredients in two-way combinations. Formulated compounds were applied to the plant material with an overhead Mandel track sprayer equipped with 8002E nozzles calibrated to deliver 187 L/ha over an application area of 0.503 square meters (m^2) at a spray height of 18 inches (43 centimeters (cm)) above average plant canopy. Control plants were sprayed in the same manner with the solvent blank.
(§4) The treated plants and control plants were placed in a greenhouse as described above and watered by sub-irrigation to prevent wash-off of the test compounds. After 20-22 d, the condition of the test plants as compared with that of the control plants was determined visually and scored on a scale of 0 to 100 percent where 0 corresponds to no injury and 100 corresponds to complete kill.
(§5) Colby's equation was used to determine the herbicidal effects expected from the mixtures (Colby, S. R. Calculation of the synergistic and antagonistic response of herbicide combinations. Weeds 1967, 15, 20-22.).
(§6) The following equation was used to calculate the expected activity of mixtures containing two active ingredients, A and B: Expected=A+B−(A×B/100)
(§7) A=observed efficacy of active ingredient A at the same concentration as used in the mixture.
(§8) B=observed efficacy of active ingredient B at the same concentration as used in the mixture.

Data set [2] has as its system wild pansy (Viola tricolor L; VIOTR). Description: Postemergence herbicidal activity, greenhouse, visual injury: wild pansy. Set-up: key: visual injury, 0–100%: 0 = no injury, 100 = complete kill. On the procedure: as §1, §2, §3, §4, §5, §6, §7, §8
Data set [3] relates to wheat (Triticum aestivum L; TRZAS). In words: Postemergence herbicidal safening, greenhouse, visual injury: wheat. On the procedure:
as §1, §2, §3, §4, §5, §6, §7, §8

Data set [4] concerns barley (Hordeum vulgare L; HORVS). In words: Postemergence herbicidal safening, greenhouse, visual injury: barley. On the procedure: as §1, §2, §3, §4, §5, §6, §7, §8
The subject of data set [5] is wild buckwheat (Polygonum convolvulus L; POLCO). Description: Postemergence herbicidal activity, greenhouse, visual injury: wild buckwheat. How it is done: as §1, §2, §3, §4, §5, §6, §7, §8
In data set [6] the test system is chickweed (Stellaria media L; STEME). In words: Postemergence herbicidal activity, greenhouse, visual injury: chickweed. Also on record: key: visual injury, 0–100%: 0 = no injury, 100 = complete kill. How it is done: as §1, §2, §3, §4, §5, §6, §7, §8
In data set [7] the test system is Russian thistle (Salsola iberica L; SASKR). In words: Postemergence herbicidal activity, greenhouse, visual injury: Russian thistle. Set-up: key: visual injury, 0–100%: 0 = no injury, 100 = complete kill. On the procedure: as §1, §2, §3, §4, §5, §6, §7, §8
Data set [8] concerns corn poppy (Papaver rhoeas L; PAPRH). Description: Postemergence herbicidal activity, greenhouse, visual injury: corn poppy. On the procedure: as §1, §2, §3, §4, §5, §6, §7, §8
For data set [9], the system named is cleavers (Galium aparine L; GALAP). Description: Postemergence herbicidal activity, greenhouse, visual injury: cleavers. Also on record: key: visual injury, 0–100%: 0 = no injury, 100 = complete kill. On the procedure:
as §1, §2, §3, §4, §5, §6, §7, §8

Data set [10] relates to purple deadnettle (Lamium purpureum L; LAMPU). In words: Postemergence herbicidal activity, greenhouse, visual injury: purple deadnettle. Set-up: key: visual injury, 0–100%: 0 = no injury, 100 = complete kill. On the procedure:
as §1, §2, §3, §4, §5, §6, §7, §8

Turning to `O=C(C(Cl)Cl)N1CCOC12CCCCC2` [AD67, 4-(dichloroacetyl)-1-oxa-4-azaspiro[4,5]decane, reference compound], the “VERPE Ob” value in [1] (applied alone at 17.5 g/ha), in [1] (applied alone at 35 g/ha), in data set [1] (applied alone at 70 g/ha) and in data set [1] (applied alone at 140 g/ha) was 0% each time. In addition, the “VIOTR Ob” value in data set [2] (applied alone at 17.5 g/ha), in data set [2] (applied alone at 35 g/ha), in data set [2] (applied alone at 70 g/ha) and in data set [2] (applied alone at 140 g/ha) was 0% each time. Moreover, the “TRZAS Ob” value in data set [3] (applied alone at 17.5 g/ha), in data set [3] (applied alone at 35 g/ha), in [3] (applied alone at 70 g/ha) and in data set [3] (applied alone at 140 g/ha) was 0% in each case. The “HORVS Ob” value in data set [4] (applied alone at 17.5 g/ha), in [4] (applied alone at 35 g/ha), in data set [4] (applied alone at 70 g/ha) and in data set [4] (applied alone at 140 g/ha) was 0% each time. Besides, the “POLCO Ob” value in data set [5] (applied alone at 17.5 g/ha), in data set [5] (applied alone at 35 g/ha), in data set [5] (applied alone at 70 g/ha) and in data set [5] (applied alone at 140 g/ha) was 0% each time. Besides, the “STEME Ob” value in [6] (applied alone at 17.5 g/ha), in [6] (applied alone at 35 g/ha), in data set [6] (applied alone at 70 g/ha) and in data set [6] (applied alone at 140 g/ha) was 0% each time. Also, the “SASKR Ob” value in data set [7] (applied alone at 17.5 g/ha), in data set [7] (applied alone at 35 g/ha), in data set [7] (applied alone at 70 g/ha) and in [7] (applied alone at 140 g/ha) was 0% in each case. In addition, the “PAPRH Ob” value in data set [8] (applied alone at 17.5 g/ha), in [8] (applied alone at 35 g/ha), in data set [8] (applied alone at 70 g/ha) and in [8] (applied alone at 140 g/ha) was 0% throughout. Moreover, the “GALAP Ob” value in data set [9] (applied alone at 17.5 g/ha), in data set [9] (applied alone at 35 g/ha), in data set [9] (applied alone at 70 g/ha) and in data set [9] (applied alone at 140 g/ha) was 0% in each case.
With `Cc1ccc(NC(=O)NC(C)(C)c2ccccc2)cc1` [Daimuron], the “LAMPU Ob (Observed values)” value in data set [10] (safener 4.4 g/ha alone), in data set [10] (safener 8.8 g/ha alone), in data set [10] (safener 17.5 g/ha alone) and in data set [10] (safener 35 g/ha alone) was 0 throughout. The “PAPRH Ob (Observed values)” value in data set [8] (safener 4.4 g/ha alone), in data set [8] (safener 8.8 g/ha alone), in data set [8] (safener 17.5 g/ha alone) and in data set [8] (safener 35 g/ha alone) was 0 throughout.
With `O=C(O)c1nc(C(Cl)(Cl)Cl)n(-c2ccc(Cl)cc2Cl)n1` [Fenchlorazole], the “LAMPU Ob (Observed values)” value in data set [10] (safener 4.4 g/ha alone), in data set [10] (safener 8.8 g/ha alone), in data set [10] (safener 17.5 g/ha alone) and in [10] (safener 35 g/ha alone) was 0 in each case. For the same compound, the “PAPRH Ob (Observed values)” value in data set [8] (safener 4.4 g/ha alone), in data set [8] (safener 8.8 g/ha alone), in data set [8] (safener 17.5 g/ha alone) and in [8] (safener 35 g/ha alone) was 0 each time.
Turning to `FC(F)(F)C(=NOCC1OCCO1)c1ccc(Cl)cc1` [Fluxofenim], the “VERPE Ob” value in data set [1] (applied alone, 17.5 g/ha) is on record as 0; in [1] (applied alone, 35 g/ha), 0; in [1] (applied alone, 70 g/ha) it was 0; in data set [1] (applied alone, 140 g/ha), 0. For the same compound, the “VIOTR Ob” value is 0 in data set [2] (applied alone, 17.5 g/ha); 0 in data set [2] (applied alone, 35 g/ha); 0 in data set [2] (applied alone, 70 g/ha); 0 in data set [2] (applied alone, 140 g/ha). Further, the TRZAS Ob was determined as 0% in data set [3] (applied alone, 17.5 g/ha); 0% in data set [3] (applied alone, 35 g/ha); 0% in data set [3] (applied alone, 70 g/ha); 0% in data set [3] (applied alone, 140 g/ha). Besides, the HORVS Ob in [4] (applied alone, 17.5 g/ha) is 0%; in [4] (applied alone, 35 g/ha) it was 0%; in data set [4] (applied alone, 70 g/ha) it was 0%; in data set [4] (applied alone, 140 g/ha), 0%. Moreover, the “POLCO Ob” value in data set [5] (applied alone, 17.5 g/ha) came out at 0; in data set [5] (applied alone, 35 g/ha), 0; in data set [5] (applied alone, 70 g/ha), 0; in data set [5] (applied alone, 140 g/ha) it was 0. For the same compound, the “STEME Ob” value in data set [6] (applied alone, 17.5 g/ha) was determined as 0; in data set [6] (applied alone, 35 g/ha) it was 0; in data set [6] (applied alone, 70 g/ha), 0; in data set [6] (applied alone, 140 g/ha) it was 0. For the same compound, the “SASKR Ob” value in [7] (applied alone, 17.5 g/ha) came out at 0; in data set [7] (applied alone, 35 g/ha) it was 0; in data set [7] (applied alone, 70 g/ha) it was 0; in [7] (applied alone, 140 g/ha) it was 0. The “PAPRH Ob” value in data set [8] (applied alone, 17.5 g/ha) stood at 0; in [8] (applied alone, 35 g/ha), 0; in [8] (applied alone, 70 g/ha) it was 0; in data set [8] (applied alone, 140 g/ha) it was 0. The “GALAP Ob” value in [9] (applied alone, 17.5 g/ha) was determined as 0; in [9] (applied alone, 35 g/ha), 0; in data set [9] (applied alone, 70 g/ha), 0; in data set [9] (applied alone, 140 g/ha), 0.
For `O=C1OC(=O)c2cccc3cccc1c23` [Naphthalic anhydride], the “VERPE Ob” value in [1] (applied alone, 17.5 g/ha) is on record as 0; in data set [1] (applied alone, 35 g/ha), 0; in data set [1] (applied alone, 70 g/ha) it was 0; in [1] (applied alone, 140 g/ha), 0. Besides, the “VIOTR Ob” value in [2] (applied alone, 17.5 g/ha) was 0; in data set [2] (applied alone, 35 g/ha), 0; in data set [2] (applied alone, 70 g/ha) it was 0; in data set [2] (applied alone, 140 g/ha) it was 0. The “POLCO Ob” value in [5] (applied alone, 17.5 g/ha) is listed as 0; in data set [5] (applied alone, 35 g/ha), 0; in data set [5] (applied alone, 70 g/ha), 0; in [5] (applied alone, 140 g/ha), 0. Moreover, the “STEME Ob” value was found to be 0 in [6] (applied alone, 17.5 g/ha); 0 in data set [6] (applied alone, 35 g/ha); 0 in data set [6] (applied alone, 70 g/ha); 0 in data set [6] (applied alone, 140 g/ha). Further, the “SASKR Ob” value in data set [7] (applied alone, 17.5 g/ha) is listed as 0; in data set [7] (applied alone, 35 g/ha), 0; in [7] (applied alone, 70 g/ha) it was 0; in [7] (applied alone, 140 g/ha) it was 0. The “PAPRH Ob” value in data set [8] (applied alone, 17.5 g/ha) amounted to 0; in data set [8] (applied alone, 35 g/ha), 0; in data set [8] (applied alone, 70 g/ha) it was 0; in data set [8] (applied alone, 140 g/ha), 0. Also, the “GALAP Ob” value in data set [9] (applied alone, 17.5 g/ha) was found to be 0; in data set [9] (applied alone, 35 g/ha) it was 0; in data set [9] (applied alone, 70 g/ha), 0; in data set [9] (applied alone, 140 g/ha) it was 0.
